{"source": "patent US11622994B2", "about": "“Therapy for vitiligo” (Clinuvel Pharmaceuticals Limited, priority 2008, dated 2023)", "origin": "cited, not measured here", "key": {"frog skin": {"tested_on": "frog skin", "details": "frog skin bioassay; versus native alpha-MSH"}, "[1]": {"tested_on": "cultured human keratinocytes", "details": "versus native alpha-MSH"}}}
{"substance": "Nle^4-D-Phe^7-alpha-MSH", "values": [{"measurement": "potency relative to the native hormone at inducing pigmentation", "setting": "frog skin", "result": "10 to 1,000 fold"}, {"measurement": "potency relative to the native hormone at inducing pigmentation", "setting": "[1]", "result": "10 to 1,000 fold"}, {"measurement": "melanin synthesis", "setting": "human volunteers", "result": "can induce melanin synthesis"}]}
